Here are results for one molecule from paper PMC5444695, “CM363, a novel naphthoquinone derivative which acts as multikinase modulator and overcomes imatinib resistance in chronic myelogenous leukemia” (Oncotarget, 2016).

One data set relates to MOLM.13 cells. The data set is described as follows: MTT cell viability assay, MOLM.13 cells. The class given is cell-based. The following applies: Homo sapiens, MOLM.13, 48 h, read-out: IC50 (μM) Mean ± SD. How it is done:
(§1) All cell lines were purchased from the American Type Culture Collection (ATCC). The cell lines were growth at 37°C under 5% CO2 under humidified atmosphere. The cell lines K562 (derived from patients during the blast crisis phase of CML and IM sensitive), K562-R (IM resistance human CML), KmycBT15I (KBTI; IM resistant human CML, expressing the Bcr-Abl […] mutant), HEL (human erythroleukemia), HL60 (human acute myeloid leukemia), MOLM-13 (human acute myeloid leukemia), MV4.11 (human acute monocytic leukemia), HCT-15 (human colorectal adenocarcinoma), PC3 (human prostate cancer), MCF7 (human breast cancer), NCTC3749 (mouse lymphoma) as well as the MRC.5 cells (non-malignant human lung fibroblasts) were maintained in RPMI-1640 medium. The cell lines L1210 (mouse lymphocytic leukemia cells), Raw (mouse macrophage), HeLa (human epithelial cervix cancer), U-2 OS (human osteosarcoma), MG63 (human osteosarcoma) and T47D (human breast cancer adenocarcinoma) were maintained in DMEM. HEK293 cells stably expressing the GH receptor (HEKGHR) were maintained in DMEM-F12 medium. […]
(§2) Cells were seeded in 96-well plates (BD Falcon, France) at exponential growth density (5000–20000 cells/well) and treated with vehicle (0.05% DMSO) or compound (0.01 to 10 μM) for 48–72 h. […] Optical density was measured at 595 nm with the iMark Microplate Reader (BioRad, CA, USA).

The test system of a further data set is pYStat5. The data set is described as follows: GM-CSF-induced pYStat5 in primary mouse macrophages. Type of data set: cell-based. The following applies: 3 μM CM363 for 0.5 h, data not shown.
Another data set has as its system T47D cells. The data set can be described thus: MTT cell viability assay, T47D cells. Type of data set: cell-based. As to conditions: Homo sapiens, 48 h, read-out: IC50 (μM) Mean ± SD. Here is the method: as §1, §2
For a further data set, the system named is K562 cells. The data set can be described thus: Live-cell imaging (IncuCyte HD) of proliferation and cytotoxicity, K562 cells. As to conditions: Homo sapiens. The class given is cell-based, human. Here is the method: (§3) Kinetic measurements of cell proliferation and cytotoxicity were carried out by using the IncuCyte^TM HD real time imaging system (Essen BioScience, Hertfordshire, United Kingdom). After seeding in a polylysine-coated 96 well-plates, K562 cells were treated with different concentrations of compound. This IncuCyte™ microscope permits the acquisition of automated phase contrast images. Individual images are processed by an imbedded contrast-based confluence algorithm, which compute monolayer confluence for each image and at each time point. Multiple images are collected per well and averaged to provide a representative statistical measure of confluence.

Experiment in data set [1]: as above
Type of data set: cell-based, human. As to conditions: human, K562 cells; K562, continuous exposure over 4-day period, area under curve; read-out: EC50AUC, cytotoxic effect. Here is the method: as §3

For another data set, the system named is HCT-15 cells. The data set is described as follows: MTT cell viability assay, HCT-15 cells. Type of data set: cell-based. The following applies: Homo sapiens, HCT-15, 48 h, read-out: IC50 (μM) Mean ± SD. Here is the method: as §1, §2
Data set [2] concerns IM resistant K562 cells (K562-R). The data set can be described thus: Live-cell imaging (IncuCyte HD) of proliferation, IM resistant K562 cells. The class given is cell-based. As to conditions: Homo sapiens, 96 h, 4-day period, area under curve, read-out: IC50AUC, cytostatic effect on cell growth. Here is the method: as §3
A further data set has as its system HeLa cells. The data set can be described thus: MTT cell viability assay, HeLa cells. The class given is cell-based. The following applies: Homo sapiens, 48 h, read-out: IC50 (μM) Mean ± SD. Here is the method: as §1, §2
Another data set has as its system MRC.5 cells. The data set can be described thus: MTT cell viability assay, MRC.5 cells. Type of data set: cell-based. As to conditions: Homo sapiens, MRC5, MRC.5 non-malignant lung fibroblasts, 48 h, read-out: IC50 (μM) Mean ± SD. How it is done: as §1, §2
The next data set deals with MG63 cells. The data set can be described thus: MTT cell viability assay, MG63 cells. The class given is cell-based. As to conditions: Homo sapiens, MG-63, MG63, 48 h, read-out: IC50 (μM) Mean ± SD. How it is done: as §1, §2
A further data set has as its system L1210 cells. The data set is described as follows: MTT cell viability assay, L1210 cells. The class given is cell-based. As to conditions: Mus musculus, L1210, 48 h, read-out: IC50 (μM) Mean ± SD. Here is the method: as §1, §2
The next data set has as its system NCTC cells. The data set can be described thus: MTT cell viability assay, NCTC cells. Type of data set: cell-based. As to conditions: Mus musculus, 48 h, read-out: IC50 (μM) Mean ± SD. Here is the method:
as §1, §2

The test system of the next data set is HL60 cells. The data set can be described thus: MTT cell viability assay, HL60 cells. Type of data set: cell-based. The following applies: Homo sapiens, HL-60, HL60, 48 h, read-out: IC50 (μM) Mean ± SD. How it is done: as §1, §2
For the next data set, the system named is Stat5 response element. The data set is described as follows: Stat5 luciferase reporter gene assay in HEKGHR cells. Type of data set: cell-based. As to conditions: 1 h pretreatment then GH 7 h. How it is done:
The HEKGHR cell line was used to determine the effects of compounds on GH-regulated Stat5 transcriptional activity. HEKGHR cells were transfected with pSPI-GLE1-Luc (1 μg) overnight using Metafectene Pro® (Biontex, Germany). The β-galactosidase expression plasmid (0.05 μg) (Thermo Scientific, Illinois, USA) was used for controlling transfection efficiency. The stable reporter cell line HeLa/Stat3-luc (Panomics, Fremont, USA), was used to determine the effects of compounds on oncostatin M-regulated Stat3 transcriptional activity. Cells were seeded in a 6-well culture plate (Nunc, Denmark) and they were serum deprived (0.5% FBS) for 16 h. Then, cells were treated with vehicle (0.05% DMSO) or compound (0.1 to 10 μM) during 1 h before rhGH (50 nM) or oncostatin M (50 ng/ml) were added for 7 h for induction of Stat5- or Stat3-dependent transcriptional activities, respectively. Cells were lysed in Passive Lysis Buffer and luciferase activity was determined by the Luciferase Assay System (Thermo Scientific, Illinois, USA). Luciferase activity was measured using the microplate reader Fluoroskan Ascent FL (Labsystems). Results are expressed as relative luciferase units (RLU) per mg of protein content and β-galactosidase activity and normalized to those obtained for vehicle-treated control cells.

The subject of the next data set is PMBC. The data set is described as follows: MTT cell viability assay, PMBC. The following applies: Homo sapiens, 48 h, read-out: IC50 (μM) Mean ± SD. Type of data set: cell-based. How it is done: as §1, §2
In a further data set the test system is MCF7 cells. The data set is described as follows: MTT cell viability assay, MCF7 cells. The class given is cell-based. As to conditions: Homo sapiens, MCF7, 48 h, read-out: IC50 (μM) Mean ± SD. Here is the method:
as §1, §2

Like-named read-outs stand apart in the source and are kept apart here. Where only a bound is given, the exact number is not on record here.

Take `N#Cc1ccc(C2C3=C(CCCC3=O)OC3=C2C(=O)c2ccccc2C3=O)cc1` (centres unmarked) [CM363, 4-(1,6,11-trioxo-2,3,4,6,11,12-hexahydro-1H-benzo[b]xanthen-12-yl)benzonitrile]: the IC50 was 0.7 ± 1.1 µM in the data set with MOLM.13 cells; 1.3 ± 1.2 µM in the data set with T47D cells; 600 ± 300 nM in the data set with K562 cells (96 h, IM sensitive K562, continuous exposure over 4-day period, area under curve, read-out: IC50AUC, cytostatic effect on cell growth); 1900 ± 500 nM in the data set with K562 cells (K562, 2 h transient exposure, then additional 72 h without compound, read-out: IC50AUC, cytostatic effect after transient exposure); 3.3 µM with HCT-15 cells; 500 ± 100 nM in data set [2]. Further, the IC50 with HeLa cells is 4.8 ± 0.4 µM; in the data set on MRC.5 cells, 3.5 µM; in the data set on MG63 cells it was 1.6 ± 0.9 µM; with L1210 cells it was 3.4 ± 0.4 µM; with NCTC cells, 1.1 ± 0.7 µM; with HL60 cells it was 1.3 ± 0.6 µM. In addition, the IC50 in the data set on PMBC was over 5 µM; in the data set on MCF7 cells, 1.7 ± 1.1 µM. The “inhibition of GM-CSF-induced (10 min) pYStat5” value in the data set on pYStat5 is recorded as “complete inhibition”. For the same molecule, the EC50 at 4 days in data set [1] worked out at 1100 ± 400 nM. In addition, the “Stat5-dependent reporter gene (luciferase) activity” value with Stat5 response element is listed as “inhibit”.
